The structures appear in SMILES notation.

In one series the test system is Pest worms. The experiment in a line: Control of pest worms on tomato by Cypermethrin 25% EC in well water treated with the composition. Format: in vivo. The following applies: Cypermethrin 125 ml/acre with composition, control: 150 ml/acre in normal well water. Here is the method: The following compositions are used in the treatment for Tomato:
(§1) Tomato crop infested with worms was sprayed with Cypermethrin 25% EC using normal well water and well water treated with the compositions of the invention. 4000 Sq. meter was treated only with water and another 8000 square meter plot was treated with composition of the invention as per Example No. 3 or 5. In both the plots, pest is controlled. In treated plot, the pest control is achieved at 95% and with 15% saving in the dosage of cypermethrin pesticide.

Series [1] can be described thus: pH and color of cypermethrin spray water treated with the composition. As to conditions: composition 2 Ltr per 8000 sq. meter; control: normal well water. It counts as physicochemical. Here is the method: as §1
The next series deals with weeds. In words: Control of weeds in cotton crop by glyphosate spray in water treated with the composition. It counts as in vivo. The following applies: Glyfosate 750 ml/acre with composition, control: 1 Ltr/acre with plain water. The protocol: The cotton crop was treated with glyphosate at 1 Ltr per acre with plain water and Glyfosate used with the composition of Example 3 and 5 was used at 750 ml/acre.
(§2) The water was treated with composition of example 3 and 5 as given in Table 15 at 2 to 3 ml per ltr of water till the pH of 4.5 and 4.2 is achieved as indicated by the color achieved to the water.

Series [2] can be described thus: pH and color of glyphosate spray water treated with the composition. Format: physicochemical. As to conditions: water treated with composition at 2 to 3 ml per ltr; control: plain water. Here is the method: as §2
Series [3] can be described thus: Urea volatilization: loss of soil-applied urea, from nitrogen content of soil samples. The following applies: 50 Kg urea in soil; 1 ltr of composition where used. Here is the method: Experiment was carried out to check the effect of compositions of present invention to see the efficiency to prevent volatilization in urea.
It is noted that the pH of urea in soil in treatment T2 and T3 was adjusted to 4.5 to 5.0 due to addition of composition of invention.
The soil samples were collected from various selected locations wherever urea is applied and then checked for nitrogen content in laboratory after 0, 2, 4, 6, 8 and 10 days of urea application.

`CC1(C)C(C=C(Cl)Cl)C1C(=O)OC(C#N)c1cccc(Oc2ccccc2)c1` (centres unmarked) [Cypermethrin]: the “Control of Pest worms” value with Pest worms came to 78%. In addition, the “pH of Cypermethrin Spray solution” value in series [1] is reported as 7.20.
For `O=C(O)CNCP(=O)(O)O` [Glyfosate, glyphosate], in the series on weeds, the Control of weeds turned out to be 72%. The “pH of Glyfosate spray solution” value in series [2] is 7.65.
Turning to `NC(N)=O` [Plain Urea, Urea], the “pH achieved of urea in soil” value in series [3] was “pH = 7.5”.

For the origin of these results see patent US10259753B2, “Multifunctional organic agricultural fertilizer composition and process for preparation thereof” (priority 2014, dated 2019).
